10 compounds from patent publication US20230172204A1 (BASF SE, priority 2020, published 2023) can be followed below.

Test [1] has as its system Phakopsora pachyrhizi (F129L). Nature of the test: Protective control of soybean rust on soybeans (PHAKPA P2). As to conditions: for % PHAKPA (F129L) Disease level P2 at 4 ppm: protective P2, 4 ppm; for % PHAKPA (F129L) Disease level P2 at 4 ppm / % PHAKPA (F129L) Disease level P2 at 16 ppm: soybean rust F129L; for % PHAKPA (F129L) Disease level P2 at 16 ppm: protective P2, 16 ppm. It is filed as in vivo.

Test [2] concerns Phakopsora pachyrhizi (F129L). Nature of the test: Protective control of soybean rust on soybeans (PHAKPA P6). It is filed as in vivo. As to conditions: for % PHAKPA (F129L) Disease level P6 at 4 ppm: protective P6, 4 ppm; for % PHAKPA (F129L) Disease level P6 at 4 ppm / % PHAKPA (F129L) Disease level P6 at 16 ppm: soybean rust F129L; for % PHAKPA (F129L) Disease level P6 at 16 ppm: protective P6, 16 ppm.

Consider `CCc1ccccc1/C(C)=N/OCc1c(C)cccc1/C(=N\OC)C(=O)OC` [compound 175], for which, in test [1], the “% PHAKPA (F129L) Disease level P2 at 4 ppm” value turned out to be 100% and the “% PHAKPA (F129L) Disease level P2 at 16 ppm” value stood at 97%. In addition, in test [2], the “% PHAKPA (F129L) Disease level P6 at 4 ppm” value worked out at 100% and the “% PHAKPA (F129L) Disease level P6 at 16 ppm” value amounted to 93%.
Take `CO/N=C(/C(=O)OC)c1cccc(C)c1CO/N=C(\C)c1cc(Cl)cc(Cl)c1` [Ex. 3, Methyl (2E)-2-[2-[[(E)-1-(3,5-dichlorophenyl)ethylideneamino]oxymethyl]-3-methyl-phenyl]-2-methoxyimino-acetate]: in test [1] (P2 protective, 16 ppm, % diseased leaf area), the “PHAKPA (F129L) Disease level (%) P2 at 16 ppm” value was found to be 2%. Also, in test [1], the “% PHAKPA (F129L) Disease level P2 at 4 ppm” value is on record as 30% and the “% PHAKPA (F129L) Disease level P2 at 16 ppm” value was found to be 3%. Further, the “PHAKPA (F129L) Disease level (%) P6 at 16 ppm” value in test [2] (P6 protective, 16 ppm, % diseased leaf area) is given as 1%. For the same compound, in test [2], the “% PHAKPA (F129L) Disease level P6 at 4 ppm” value was determined as 40% and the “% PHAKPA (F129L) Disease level P6 at 16 ppm” value worked out at 6%.
For the compound `CNC(=O)/C(=N/OC)c1cccc(C)c1CO/N=C(\C)c1cc(C(F)(F)F)ccc1C1CC1` [compound 185], in test [1], the “% PHAKPA (F129L) Disease level P2 at 4 ppm” value stood at 100% and the “% PHAKPA (F129L) Disease level P2 at 16 ppm” value is 67%. For the same compound, in test [2], the “% PHAKPA (F129L) Disease level P6 at 4 ppm” value was 90% and the “% PHAKPA (F129L) Disease level P6 at 16 ppm” value is recorded as 77%.
With `CNC(=O)/C(=N/OC)c1cccc(C)c1CO/N=C(\C)c1cc(C(F)(F)F)ccc1Cl` [compound 190], in test [1], the “% PHAKPA (F129L) Disease level P2 at 4 ppm” value turned out to be 20% and the “% PHAKPA (F129L) Disease level P2 at 16 ppm” value turned out to be 0%. In test [2], the “% PHAKPA (F129L) Disease level P6 at 4 ppm” value is reported as 45% and the “% PHAKPA (F129L) Disease level P6 at 16 ppm” value is on record as 3%.
As for `CNC(=O)/C(=N/OC)c1cccc(C)c1CO/N=C(\C)c1cc(Cl)cc(Cl)c1` [Ex. 4, (2E)-2-[2-[[(E)-1-(3,5-dichlorophenyl)ethylideneamino]oxymethyl]-3-methyl-phenyl]-2-methoxyimino-N-methyl-acetamide], the “PHAKPA (F129L) Disease level (%) P2 at 4 ppm” value in test [1] (P2 protective, 4 ppm, % diseased leaf area) is recorded as 2%. Further, in test [1], the “% PHAKPA (F129L) Disease level P2 at 4 ppm” value was determined as 2% and the “% PHAKPA (F129L) Disease level P2 at 16 ppm” value worked out at 0%. In addition, the “PHAKPA (F129L) Disease level (%) P6 at 4 ppm” value in test [2] (P6 protective, 4 ppm, % diseased leaf area) was found to be 17%. Further, in test [2], the “% PHAKPA (F129L) Disease level P6 at 4 ppm” value is 13% and the “% PHAKPA (F129L) Disease level P6 at 16 ppm” value was found to be 1%.
For the compound `CNC(=O)/C(=N/OC)c1cccc(C)c1CO/N=C(\C)c1c(F)cc(F)cc1C(F)(F)F` [compound 357], in test [1], the “% PHAKPA (F129L) Disease level P2 at 4 ppm” value worked out at 13% and the “% PHAKPA (F129L) Disease level P2 at 16 ppm” value is given as 1%. Further, in test [2], the “% PHAKPA (F129L) Disease level P6 at 4 ppm” value amounted to 18% and the “% PHAKPA (F129L) Disease level P6 at 16 ppm” value is on record as 0%.
In the case of `CNC(=O)/C(=N/OC)c1cccc(C)c1CO/N=C(\C)c1cccc(/C(C)=N/OC)c1` [Ex. 15], in test [1], the “% PHAKPA (F129L) Disease level P2 at 4 ppm” value is reported as 4% and the “% PHAKPA (F129L) Disease level P2 at 16 ppm” value is listed as 0%. In test [2], the “% PHAKPA (F129L) Disease level P6 at 4 ppm” value was 24% and the “% PHAKPA (F129L) Disease level P6 at 16 ppm” value is listed as 1%.
As for `CNC(=O)/C(=N/OC)c1cccc(C)c1CO/N=C(\C)c1ccc(OC)cc1OC(F)(F)F` [compound 337], in test [1], the “% PHAKPA (F129L) Disease level P2 at 4 ppm” value was 9% and the “% PHAKPA (F129L) Disease level P2 at 16 ppm” value worked out at 0%. In addition, in test [2], the “% PHAKPA (F129L) Disease level P6 at 4 ppm” value stood at 13% and the “% PHAKPA (F129L) Disease level P6 at 16 ppm” value amounted to 1%.
The like results for `CNC(=O)/C(=N/OC)c1cccc(C)c1CO/N=C(\C)c1cc(-c2ccccc2)cc(C(F)(F)F)c1` [compound 149] were, in that order, 83%, 45%, 87% and 31%.
As for `CNC(=O)/C(=N/OC)c1cccc(C)c1CO/N=C(\C)c1cccc(C#CC(F)(F)F)c1` [compound 57], in test [1], the “% PHAKPA (F129L) Disease level P2 at 4 ppm” value was 25% and the “% PHAKPA (F129L) Disease level P2 at 16 ppm” value was determined as 8%. For the same compound, in test [2], the “% PHAKPA (F129L) Disease level P6 at 4 ppm” value is given as 43% and the “% PHAKPA (F129L) Disease level P6 at 16 ppm” value is 15%.
